Laboratory results taken from article PMC4669759 (Cell Death & Disease, 2015).

What was measured:
[1] = tested on: H929 cells; assay: Cell viability, H929 cells; assay type: cell-based, human; settings: H929, 48 h
Experimental: Figure 4 Indole-2-carboxylic acids induce the hallmarks of apoptosis in MCL-1-dependent cancer cell line H929. (a) Digitonin-permeabilized H929 cells were treated with 10 μM BH3 peptides for 4 h, and intact H929 cells were incubated with increasing concentrations (0.1–10 μM) of A-1208746 for 4 h before assessing the levels of cytochrome c released into the cytosol. (b) H929 and RS4;11 cells were incubated with increasing concentrations of MCL-1 inhibitors or the BCL-2-selective inhibitor ABT-199 (venetoclax) for 48 h before determining cell viability. Cell killing IC50s are plotted with each value representing the mean of three separate experiments. Error bars represent the S.E.M. (c) H929 cells were incubated with increasing concentrations of MCL-1 inhibitors in the presence or absence of the pan-caspase inhibitor QVD (100 μM) for 4 h before assessing caspase-3/-7 activation, mitochondrial membrane polarization, and the exposure of phosphatidylserine. […]
Adherent cell lines were seeded at 50 000 cells per well in 96-well plates and treated for 48 h with compounds diluted in half-log steps starting at 30 μM and ending at 0.001 μM. […] Effects on proliferation and viability were determined using CellTiter-Glo reagent from Promega (Madison, WI, USA) according to the manufacturer's instructions. IC50 values were determined by non-linear regression analysis of the concentration response data.

[2] = tested on: BxPC-3 cells; assay: Navitoclax / A-1210477 combination cell viability, BxPC-3 cells; assay type: cell-based; settings: BxPC-3, 48 h
Experimental: Figure 6 A-1210477 synergizes with navitoclax to kill hematological and solid tumor cell lines. BxPC-3, EJ-1, H23, and OPM-2 cells were treated with increasing concentrations of navitoclax in the presence or absence of increasing concentrations of A-1210477 for 48 h before assessing cell viability. All data points represent the means of triplicate experiments, with error bars indicating the S.E.M. TEXT PRINTED IN THE PICTURE: A-1210477 + navitoclax: Bliss sum (BxPC-3): 716; Bliss sum (EJ-1): 464; Bliss sum (H23): 76; Bliss sum (OPM-2): 946 DOUBTS OF THE COPYIST ABOUT THIS PICTURE: The Bliss sums apply to the combination of A-1210477 and navitoclax. The picture prints the two names separately (legend heading and axis title), not as one joined label.
Adherent cell lines were seeded at 50 000 cells per well in 96-well plates and treated for 48 h with compounds diluted in half-log steps starting at 30 μM and ending at 0.001 μM. Multiple myeloma cell lines were seeded at 15 000–20 000 cells per well and treated similarly. Effects on proliferation and viability were determined using CellTiter-Glo reagent from Promega (Madison, WI, USA) according to the manufacturer's instructions. IC50 values were determined by non-linear regression analysis of the concentration response data.

[3] = target: T1, BCL-XL–BAD complexes (Homo sapiens, UniProt Q07817); assay: Live cell redistribution assay, eGFP-BCL-XL and mCherry-BAD, T-REx-293 cells; assay type: cell-based; settings: 10 μM, 300 min
T1 construct: expressed in transfected cells; host or cells: T-REx-293, bicistronic expression module integrated at a single genomic site
Description: (§1) To further rule out potential artifacts associated with lysate detergents that can influence interactions between BCL-2 family proteins,[47] we employed a recently described real-time imaging method to assess the effects on BCL-2 family complexes in live cells.[48] Briefly, interacting pairs of BCL-2 family proteins are expressed as fluorescent fusion proteins at stoichiometric levels from a bicistronic expression module integrated into a single site of the genome in T-REx-293 cells. […]
(§2) Figure 3 A-1210477 inhibits MCL-1-BIM complexes in live cells. […] The decrease in amount of mCherry-BH3 protein localized to the mitochondria was quantified as a function of time as described in the Materials and Methods, normalized to DMSO control, and fitted to a single exponential decay. Each data point represents the mean change in intensity calculated from 10 fields of view, with error bars indicating the S.E.M. (b) T-REx-293 cells stably expressing eGFP-MCL-1(3B) and mCherry-BIMS(2A)ΔC were treated with 50 μM ABT-737 or increasing concentrations (1–25 μM) A-1210477 for 100 min. The decrease in amount of mCherry-BIMS(2A)ΔC localized to the mitochondria was quantified as in panel (a). (c) Representative fluorescence microscopic images of T-REx-293 cells stably expressing eGFP-BCL-2 family and interacting mCherry-BH3-only proteins before and after 300 min of treatment with 10 μM A-1210477 or (d) ABT-737. […]

[4] = target: T2, BCL-2–BAD complexes (Homo sapiens, UniProt P10415); assay: Live cell redistribution assay, eGFP-BCL-2 and mCherry-BAD, T-REx-293 cells; assay type: cell-based; settings: 10 μM, 300 min
T2 construct: expressed in transfected cells; host or cells: T-REx-293, bicistronic expression module integrated at a single genomic site
Description: as §1, §2

[5] = tested on: Bak-/- Bax-/- MEFs; assay: Cell viability, Bak-/- Bax-/- murine embryonic fibroblasts; assay type: cell-based; settings: 48 h
Experimental: Supplementary Figure 4. […] Murine embryonic fibroblasts (MEFs) lacking Bak and Bax were treated with increasing concentrations of A-1155905, A-1208746, A-1210477, staurosporine or bortezomib for 48 h before assessing cell viability. Data represent the mean of triplicate experiments and error bars indicate the standard error of the mean.

T2 sequence (P10415 whole entry, one chain of several): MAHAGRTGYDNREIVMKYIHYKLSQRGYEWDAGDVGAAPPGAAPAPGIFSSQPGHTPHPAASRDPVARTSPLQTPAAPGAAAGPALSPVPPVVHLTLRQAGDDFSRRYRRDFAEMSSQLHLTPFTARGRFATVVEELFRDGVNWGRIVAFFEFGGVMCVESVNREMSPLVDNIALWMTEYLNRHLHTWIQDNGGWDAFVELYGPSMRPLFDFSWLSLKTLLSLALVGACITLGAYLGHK
T1 sequence (Q07817 whole entry, one chain of several): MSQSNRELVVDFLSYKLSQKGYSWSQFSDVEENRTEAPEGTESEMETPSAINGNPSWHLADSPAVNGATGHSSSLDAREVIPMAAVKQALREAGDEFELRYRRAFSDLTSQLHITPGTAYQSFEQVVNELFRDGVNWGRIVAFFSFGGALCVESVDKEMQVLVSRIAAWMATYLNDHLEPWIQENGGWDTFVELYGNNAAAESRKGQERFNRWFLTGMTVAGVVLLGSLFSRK

Cc1nn(C)c(COc2ccc(N3CCN(S(=O)(=O)N(C)C)CC3)cc2)c1-c1cccc2c(CCCOc3cccc4ccccc34)c(C(=O)O)n(CCN3CCOCC3)c12 [A-1210477]
cell killing IC50 [1]: low-μM range | potentiation of navitoclax [2]: substantially shifted the dose–response curve of navitoclax | redistribution of mCherry-BAD associated with BCL-XL [3]: no effect | redistribution of mCherry-BAD associated with BCL-2 [4]: no effect | killing of Bak-/- Bax-/- MEFs [5]: do not Kill
